Assay results: EP4431115A1, “COMPOUND PHARMACEUTICAL PREPARATION CONTAINING OIL COMPONENT COMPRISING POLYOXYETHYLENE STRUCTURE” (CHUGAI SEIYAKU KABUSHIKI KAISHA, priority 2022, dated 2023)
Converted amounts (≈) assume the structure as drawn. Bridge positions count the residues as written; N and C are the ends. Square brackets hold non-standard residues; d marks the D form. Peptide text beside a SMILES is read from it. * marks the point of attachment. hPhe(3,5-F2-4-CF3) = N[C@@H](CCc1cc(F)c(C(F)(F)F)c(F)c1)C(=O)O; hPhe(3-Cl-4-CF3) = N[C@@H](CCc1ccc(C(F)(F)F)c(Cl)c1)C(=O)O; NMeGly(cPent) = CN[C@H](C(=O)O)C1CCCC1; NMeCha = CN[C@@H](CC1CCCCC1)C(=O)O; Hyp = O=C(O)[C@@H]1C[C@@H](O)CN1; NMeF = CN[C@@H](Cc1ccccc1)C(=O)O; NMeD = CN[C@@H](CC(=O)O)C(=O)O; NMeL = CN[C@@H](CC(C)C)C(=O)O; NMeA = CN[C@@H](C)C(=O)O; Piperidide = C1CCN(*)CC1; Ac5c = NC1(C(=O)O)CCCC1; Aze = O=C(O)[C@@H]1CCN1; Sar = CNCC(=O)O; tBu = CC(C)(C)*

Experiment: Evaluation of solubility of cyclic peptide compound in phosphate buffer (Example 3-3)
Assay type: physicochemical
Conditions: 50 mM phosphate buffer solution pH 6.5, 37°C, 22 to 24 hours
Method: Evaluation of the solubility of the cyclic peptide compound was performed. To lyophilized powder of the compound, a 50 mM phosphate buffer solution (PPB: Phosphate buffer, pH 6.5) was added, and after shaking (at 37°C, 1800 rpm, for 22 to 24 hours), the mixed solution was filtered through a filter, and the compound concentration of the filtrate was measured by LC/MS/MS. Solubility was calculated from the measured compound concentration. The solubilities of the compounds 3, 4, 6, 7, and 8 were 11 µg/mL, 1 µg/mL, 1 µg/mL, 15 µg/mL, and 5 µg/mL, respectively.

Question: For `CC(C)C[C@@H]1NC(=O)[C@H](Cc2ccccc2)N(C)C(=O)[C@H](COC(C)(C)C)NC(=O)[C@H](Cc2ccccc2)N(C)C(=O)[C@H](C)N(C)C(=O)[C@H](CC(C)C)N(C)C(=O)[C@@H](C)NC(=O)C[C@@H](C(=O)N2CCCCC2)NC(=O)[C@H](Cc2ccccc2)N(C)C(=O)[C@H]([C@@H](C)O)NC(=O)[C@H](CC(C)C)N(C)C1=O` [Compound 4] ([dA][NMeL][NMeA][NMeF]S(tBu)[NMeF]L[NMeL]T[NMeF]D-Piperidide; lactam N-11), which Solubility is on record?
Answer: Its Solubility is 1 µg/mL (≈ 0.697 µM).

Question: For `CC[C@H](C)[C@@H]1NC(=O)[C@H](CC(C)C)N(C)C(=O)C[C@@H](C(=O)N2CCCCC2)N(C)C(=O)[C@H](C2CCCC2)N(C)C(=O)C2(CCCC2)NC(=O)[C@@H]2CCCN2C(=O)[C@H](CCc2ccc(C(F)(F)F)c(Cl)c2)NC(=O)CN(C)C(=O)[C@H](CC2CCCCC2)N(C)C(=O)[C@@H]2CCN2C(=O)[C@H](C)N(C)C1=O` [Compound 6] ([NMeL]I[NMeA][Aze][NMeCha][Sar][hPhe(3-Cl-4-CF3)]P[Ac5c][NMeGly(cPent)][NMeD]-Piperidide; lactam N-11), which Solubility is on record?
Answer: The Solubility was 1 µg/mL (≈ 0.688 µM).

Question: For `CCO[C@@H]1C[C@H]2C(=O)NC3(CCCC3)C(=O)N(C)[C@@H](C3CCCC3)C(=O)N(C)[C@H](C(=O)N(C)C)CC(=O)N(C)[C@@H](CC(C)C)C(=O)N[C@@H]([C@@H](C)CC)C(=O)N(C)[C@@H](C)C(=O)N3CC[C@H]3C(=O)N(C)[C@@H](CC3CCCCC3)C(=O)N(C)CC(=O)N[C@@H](CCc3cc(F)c(C(F)(F)F)c(F)c3)C(=O)N2C1` [Compound 8] ([NMeL]I[NMeA][Aze][NMeCha][Sar][hPhe(3,5-F2-4-CF3)][Hyp](Et)[Ac5c][NMeGly(cPent)][NMeD]-NMe2; lactam N-11), which Solubility is on record?
Answer: Its Solubility is 5 µg/mL (≈ 3.43 µM).
